# Measurements: US10703749B2, “P2X7 modulators” (Janssen Pharmaceutica NV, priority 2013, dated 2020)
# Target: P2X7 (Homo sapiens (Human), UniProt Q99572)
# Assay: P2X7 antagonism in human PBMCs (IL-1β release, ELISA)
# Type: cell-based
# Conditions: 10 μM test compound, LPS 30 ng/ml + Bz-ATP 0.5 mM
# Method: Human blood was collected using a blood donor program. PBMCs were isolated from blood using a Ficoll density gradient technique. Briefly, blood was laid on Ficoll solution and centrifuged at RT for 20 minutes at 2000 rpm. The buffy layer (between red blood cells and plasma) was carefully collected by aspiration, washed with PBS and centrifuged again at 1500 rpm for 15 minutes. The resulting cell pellet was washed and plated on 96 well-plates for experiments. For the Mouse/Human Whole Blood experiments, 150 μl of either mouse or human blood was platted on 96 well-plates. Lipopolysaccharide (LPS) (30 ng/ml) was added to each well and incubated for 1 hour. Test compounds were then added and incubated for 30 minutes. The P2X7 agonist, 2′(3′)-O-(4-benzoylbenzoyl) adenosine 5′-triphosphate (Bz-ATP) was then added at a final concentration of 0.5 mM (PBMC) or 1 mM (blood). Cells were incubated for an additional 1.5 hours. At that point, supernatant was collected and stored for IL-1β assay using manufacturer's protocol for enzyme-linked immunosorbent assay (ELISA). Data was expressed as percent control, where control is defined as the difference in IL-1β release in LPS+Bz-ATP samples and LPS only samples. Data was plotted as response (% control) versus concentration to generate IC50 values.
# P2X7, sequence (Q99572 whole entry): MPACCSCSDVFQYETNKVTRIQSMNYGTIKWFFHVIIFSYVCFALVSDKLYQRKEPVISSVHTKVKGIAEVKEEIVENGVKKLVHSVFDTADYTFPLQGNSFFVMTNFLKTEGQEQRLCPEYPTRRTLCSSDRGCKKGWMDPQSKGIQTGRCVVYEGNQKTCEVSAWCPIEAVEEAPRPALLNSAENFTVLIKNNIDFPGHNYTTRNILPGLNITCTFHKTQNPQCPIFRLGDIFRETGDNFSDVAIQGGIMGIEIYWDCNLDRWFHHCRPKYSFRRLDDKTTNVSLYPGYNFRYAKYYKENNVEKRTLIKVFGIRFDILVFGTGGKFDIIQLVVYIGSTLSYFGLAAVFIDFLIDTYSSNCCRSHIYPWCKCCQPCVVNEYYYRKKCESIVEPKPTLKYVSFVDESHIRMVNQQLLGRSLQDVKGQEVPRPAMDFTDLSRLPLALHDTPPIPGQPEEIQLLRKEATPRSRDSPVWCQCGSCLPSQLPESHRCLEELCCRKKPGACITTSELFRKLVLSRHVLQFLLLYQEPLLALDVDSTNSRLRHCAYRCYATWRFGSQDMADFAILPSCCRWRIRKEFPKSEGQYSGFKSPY
row,Structure (SMILES),PBMC 10 μM (% control)
1,"Cc1c(C(=O)N2Cc3nnn(C4=NN=CC4)c3CC2C)cccc1C(F)(F)F (stereo not shown) [Example 154, (6-methyl-1-(1H-pyrazol-3-yl)-6,7-dihydro-1H-[1,2,3]triazolo[4,5-c]pyridin-5(4H)-yl)(2-methyl-3-(trifluoromethyl)phenyl)methanone]",−0.6 % control
2,"Cc1cc(C)nc(-n2nnc3c2CCN(C(=O)c2cccc(C(F)(F)F)c2Cl)C3C)n1 (stereo not shown) [Example 253, (2-Chloro-3-(trifluoromethyl)phenyl)(1-(4,6-dimethylpyrimidin-2-yl)-4-methyl-6,7-dihydro-1H-[1,2,3]triazolo[4,5-c]pyridin-5(4H)-yl)methanone]",−2.6 % control
3,"CC1c2nn(COCC[Si](C)(C)C)c(-c3ncc(F)cn3)c2CCN1C(=O)c1cccc(C(F)(F)F)c1Cl (stereo not shown) [Example 303, (2-chloro-3-(trifluoromethyl)phenyl)(3-(5-fluoropyrimidin-2-yl)-7-methyl-2-((2-(trimethylsilyl)ethoxy)methyl)-4,5-dihydro-2H-pyrazolo[3,4-c]pyridin-6(7H)-yl)methanone]",−1.6 % control
4,"Cc1nc2c(n1-c1ccccc1)CCN(C(=O)c1cccc(Cl)c1Cl)C2 [Example 331, (2,3-dichlorophenyl)(2-methyl-1-phenyl-6,7-dihydro-1H-imidazo[4,5-c]pyridin-5 (4H)-yl)methanone]",−11.0 % control
